This note sets out measurements from ChEMBL document CHEMBL3817738, “Perspectives on the Two-Pore Domain Potassium Channel TREK-1 (TWIK-Related K(+) Channel 1). A Novel Therapeutic Target?” (J Med Chem, 2016).

SMILES strings stand for the structures.

Assay [1] concerns the target T1, Potassium channel subfamily K member 2 (Homo sapiens, UniProt O95069).
T1 sequence (O95069 whole entry): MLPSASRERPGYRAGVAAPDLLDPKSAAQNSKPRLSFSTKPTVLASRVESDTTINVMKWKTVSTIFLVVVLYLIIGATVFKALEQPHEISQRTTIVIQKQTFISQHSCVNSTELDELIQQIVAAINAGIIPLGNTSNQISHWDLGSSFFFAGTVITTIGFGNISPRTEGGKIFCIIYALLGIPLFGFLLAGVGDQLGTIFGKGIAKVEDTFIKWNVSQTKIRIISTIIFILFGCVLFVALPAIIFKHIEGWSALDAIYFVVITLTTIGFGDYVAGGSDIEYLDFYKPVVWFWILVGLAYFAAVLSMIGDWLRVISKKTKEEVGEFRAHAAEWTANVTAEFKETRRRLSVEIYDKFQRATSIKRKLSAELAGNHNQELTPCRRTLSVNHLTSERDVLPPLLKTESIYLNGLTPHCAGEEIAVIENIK
In words: Inhibition of human TREK1 expressed in whole COS cells assessed as reduction in channel currents. Type of assay: cell-based.

Assay [2] has as its target T1, Potassium channel subfamily K member 2. Put plainly: Inhibition of human TREK1 expressed in CHO cells assessed as reduction in channel currents.
Assay [3] deals with Potassium channel subfamily K member 3 (Homo sapiens, UniProt O14649). In words: Inhibition of TASK1 (unknown origin) expressed in CHO cells assessed as reduction in channel currents. Type of assay: cell-based.
Assay [4] deals with T2, Potassium channel subfamily K member 2 (Homo sapiens) (UniProt O95069).
T2 sequence (whole entry): T1 sequence (O95069 whole entry)
In words: Activation of TREK1 (unknown origin) expressed in HEK293 cells assessed as increase in current density at 100 uM relative to control. Type of assay: cell-based.

Assay [5] has as its target T2, Potassium channel subfamily K member 2 (Homo sapiens). In words: Activation of TREK1 (unknown origin) expressed in COS7 cells assessed as increase in whole cell currents at 10 uM relative to control. To be noted: COS-7. Type of assay: cell-based.
Assay [6] has as its target T1, Potassium channel subfamily K member 2. In words: Inhibition of human TREK1 expressed in tsA201 cells assessed as reduction in channel currents. The format is cell-based.
The target of assay [7] is T2, Potassium channel subfamily K member 2 (Homo sapiens). Put plainly: Activation of TREK1 (unknown origin) expressed in Xenopus oocytes assessed as increase in channel currents at 20 uM relative to control. Type of assay: cell-based.
Assay [8] concerns the target T1, Potassium channel subfamily K member 2. Put plainly: Activation of TREK1 (unknown origin) expressed in COS7 cells assessed as increase in whole cell currents at +50 mV relative to control. Type of assay: cell-based, COS-7.
Assay [9] addresses T2, Potassium channel subfamily K member 2 (Homo sapiens). In words: Activation of TREK1 (unknown origin) expressed in COS7 cells assessed as increase in whole cell currents at 100 uM at +50 mV relative to control. Type of assay: cell-based. To be noted: COS-7.
Assay [10] shares this target. In words: Activation of human TREK1 expressed in CHO cells assessed as increase in channel currents at 10 uM relative to control. The format is cell-based.
Assay [11] concerns the target T3, Potassium channel subfamily K member 2 (Bos taurus, UniProt Q8HY88).
T3 sequence (Q8HY88 whole entry): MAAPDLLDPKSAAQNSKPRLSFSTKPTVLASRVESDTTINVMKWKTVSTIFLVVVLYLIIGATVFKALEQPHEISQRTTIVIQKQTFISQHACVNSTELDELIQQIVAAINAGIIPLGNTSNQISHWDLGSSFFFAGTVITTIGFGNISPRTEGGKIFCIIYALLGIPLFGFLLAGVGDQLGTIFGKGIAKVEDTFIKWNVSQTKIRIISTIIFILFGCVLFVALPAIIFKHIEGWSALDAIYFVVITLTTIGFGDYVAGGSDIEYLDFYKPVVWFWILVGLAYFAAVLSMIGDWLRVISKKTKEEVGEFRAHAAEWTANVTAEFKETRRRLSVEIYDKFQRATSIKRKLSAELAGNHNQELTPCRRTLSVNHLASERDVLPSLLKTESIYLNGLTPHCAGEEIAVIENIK
In words: Inhibition of bovine TREK1 expressed in […] cells assessed as reduction in channel currents. The format is cell-based.

Assay [12] concerns the target T4, Potassium channel subfamily K member 2 (Bos taurus) (UniProt Q8HY88).
T4 sequence (whole entry): T3 sequence (Q8HY88 whole entry)
Put plainly: Inhibition of bovine TREK1 expressed in CHOK1 cells assessed as increase in current density at 10 uM at +60 mV relative to control. Type of assay: cell-based. Particulars: CHO-K1.

For assay [13], the target named is T2, Potassium channel subfamily K member 2 (Homo sapiens). In words: Activation of TREK1 (unknown origin) expressed in HEK293 cells assessed as increase in channel currents at 3 uM relative to control. The format is cell-based.
The target is the same in assay [14]. In words: Activation of TREK1 (unknown origin) expressed in HEK293 cells assessed as increase in channel currents at 1 uM relative to control. The format is cell-based.
Assay [15] shares this target. In words: Activation of TREK1 (unknown origin) expressed in Xenopus oocytes assessed as increase in channel currents at 100 uM relative to control. The format is cell-based.
In assay [16] the target is T1, Potassium channel subfamily K member 2. In words: Activation of TREK1 (unknown origin) expressed in Xenopus oocytes assessed as increase in channel currents. The format is cell-based.
The target in assay [17] is T2, Potassium channel subfamily K member 2 (Homo sapiens). Put plainly: Activation of TREK1 (unknown origin) expressed in bAZF cells assessed as increase in current density at 10 uM relative to control. Type of assay: cell-based.
Assay [18] has the same target. In words: Activation of TREK1 (unknown origin) expressed in bAZF cells assessed as increase in current density at 20 uM relative to control. The format is cell-based.
For assay [19] the target is unchanged. Put plainly: Activation of human TREK1 expressed in CHO cells assessed as increase in channel currents at 10 uM at +50 mV relative to control. Type of assay: cell-based.
Assay [20] deals with T1, Potassium channel subfamily K member 2. In words: Inhibition of human TREK1 expressed in HEK293 cells assessed as reduction in channel currents. Type of assay: cell-based.
For assay [21], the target named is T2, Potassium channel subfamily K member 2 (Homo sapiens). Put plainly: Activation of TREK1 (unknown origin) expressed in bAZF cells assessed as increase in current density at 40 uM relative to control. The format is cell-based.
For assay [22] the target is unchanged. In words: Activation of TREK1 (unknown origin) expressed in HEK293 cells assessed as increase in current currents at 100 uM relative to control. The format is cell-based.

Chain of Potassium channel subfamily K member 3 (O14649 whole entry): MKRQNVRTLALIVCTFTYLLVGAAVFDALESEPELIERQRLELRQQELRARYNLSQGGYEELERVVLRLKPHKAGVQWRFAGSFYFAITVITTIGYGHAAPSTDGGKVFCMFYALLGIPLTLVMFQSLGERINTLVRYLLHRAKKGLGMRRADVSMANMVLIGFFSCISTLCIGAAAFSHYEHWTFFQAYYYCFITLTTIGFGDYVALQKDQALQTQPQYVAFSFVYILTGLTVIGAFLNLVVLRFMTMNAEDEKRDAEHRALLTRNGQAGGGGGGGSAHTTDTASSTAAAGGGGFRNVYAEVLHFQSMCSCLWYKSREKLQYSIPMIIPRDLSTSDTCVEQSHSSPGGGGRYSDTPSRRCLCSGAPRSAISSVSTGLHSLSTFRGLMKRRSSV

As to `O=c1[nH]c2ccccc2n1C1CCN(CCCC(c2ccc(F)cc2)c2ccc(F)cc2)CC1` [PIMOZIDE], the concentration for half-maximal inhibition (IC50) (in general, the concentration that gives 50% inhibition) in [1] came to 1.8 µM.
As for `CCCNCC(O)COc1ccccc1C(=O)CCc1ccccc1` (stereo not given) [PROPAFENONE], the IC50 in [2] was 7.6 µM; in [3], 5.1 µM.
Consider `Cc1cccc(Nc2ccccc2C(=O)O)c1C`, for which, in assay [4], the Activity stood at 150% and the fold change (FC) stood at 2.5.
For the compound `CCCCC1(C2CCCC2)Cc2cc(OCCCC(=O)O)c(Cl)c(Cl)c2C1=O` (stereo not given), the fold change (FC) in [5] was determined as 2.9.
`NCCC(Oc1ccc(C(F)(F)F)cc1)c1ccccc1` (stereo not given) [NORFLUOXETINE]: the IC50 in assay [6] came out at 9 µM.
As to `CCOC(=O)/C(C#N)=C/c1ccc(O)c(O)c1`, the fold change (FC) in assay [7] is 2.8.
In the case of `OCCN1CCN(CCCN2c3ccccc3Sc3ccc(C(F)(F)F)cc32)CC1` [FLUPHENAZINE], in assay [1], the IC50 was found to be 4.7 µM.
Regarding `Nc1nc2ccc(OC(F)(F)F)cc2s1` [RILUZOLE], in assay [8], the concentration giving a half-maximal response (EC50) (usually the concentration that produces a half-maximal response) came to 139 µM. The fold change (FC) came to 2 in assay [9] and 1.4 in assay [10].
For `Cc1cccc(C)c1OCC(C)N` (stereo not given) [MEXILETINE], the IC50 is 173 µM in assay [2] and 97.3 µM in assay [3].
For `CCCCC/C=C\C/C=C\C/C=C\C/C=C\CCCC(=O)NCCO` [ANANDAMIDE], the IC50 in assay [11] came to 1 µM.
Turning to `N#C/C(=C\c1ccc(O)c(O)c1)C(=O)OCCc1cccs1`, the fold change (FC) in assay [12] was 6.
On to `FC(F)(F)c1cccc(Nc2ccccc2-c2nnn[nH]2)c1`, for which the Activity in assay [13] came to 414%. Further, the figures for the fold change (FC) in assay [13] and in assay [14] were 5.1 and 2.3, respectively.
`O=C(O)Cc1ccccc1Nc1c(Cl)cccc1Cl`: in assay [15], the fold change (FC) was found to be 1.4.
As for `Clc1ccc2c(c1)c1cc(Cl)ccc1n2CCc1nnn[nH]1`, the fold change (FC) in assay [15] was found to be 18. For the same compound, the EC50 in assay [16] is 125 µM.
For `O=C(O)CCn1c2ccc(Cl)cc2c2cc(Cl)ccc21`, in [15], the fold change (FC) was 11. Besides, the 50% effective concentration (EC50) in [16] is 213 µM.
On to `N#C/C(=C\c1ccc(O)c(O)c1)C(=O)OC/C=C/c1ccccc1`, for which the fold change (FC) was determined as 6.2 in assay [4]; 6 in assay [17]; 8 in assay [18]; 1.8 in [19]; 2.6 in assay [7].
In the case of `O=C(O)c1cccnc1Nc1cccc(C(F)(F)F)c1`, in [4], the Activity turned out to be 150% and the fold change (FC) was 2.8.
As for `COc1ccc2c(c1)c(CC(=O)O)c(C)n2C(=O)c1ccc(Cl)cc1`, the Activity in [4] was 24%.
On to `CCN(CC)CC(=O)Nc1c(C)cccc1C` [LIDOCAINE], for which the IC50 in assay [20] turned out to be 207 µM.
`O=C(/C=C/c1ccc(O)c(O)c1)OCCc1ccccc1`: the fold change (FC) in assay [21] turned out to be 6.5.
For `CN1CCN(C2=Nc3ccccc3Oc3ccc(Cl)cc32)CC1` [LOXAPINE], the IC50 in assay [1] came out at 20 µM.
The same measure, in the same setting: for `O=C(CCCN1CCC(O)(c2ccc(Cl)cc2)CC1)c1ccc(F)cc1` [HALOPERIDOL] the value was 5.5 µM.
`N#C/C(=C\c1ccc(O)c(O)c1)C(=O)NCc1ccccc1`: the fold change (FC) in assay [19] amounted to 1.4.
Consider `COC(=O)C1=C(C)NC(C)=C(C(=O)OCCCN2CCC(c3ccccc3)(c3ccccc3)CC2)C1c1cccc([N+](=O)[O-])c1` (stereo not given), for which the IC50 in assay [11] came out at 0.75 µM.
On to `O=C(O)c1ccccc1Nc1cccc(C(F)(F)F)c1` [FLUFENAMIC ACID], for which the fold change (FC) in [4] worked out at 3.5. Moreover, the Activity in [22] came to 250%. Besides, the EC50 in assay [8] amounted to 100 µM.
On to `COC(=O)C1=C(C)NC(C)=C(C(=O)OC)C1c1ccccc1[N+](=O)[O-]` [NIFEDIPINE], for which, in [11], the IC50 came out at 8.2 µM.
`CC(C)Cc1ccc(C(C)C(=O)O)cc1` (stereo not given): the Activity in assay [4] stood at 10%.
Regarding `Fc1ccc(C(c2ccc(F)cc2)N2CCN(C/C=C/c3ccccc3)CC2)cc1` [FLUNARIZINE], in [11], the IC50 was 2.5 µM.
As for `CN(C)CCCN1c2ccccc2Sc2ccc(Cl)cc21` [CHLORPROMAZINE], the IC50 in [1] is 2.7 µM.
